These are literature values, as cited in patent US10590413B2, “Chiral control” (WAVE LIFE SCIENCES LTD., priority 2012, dated 2020).

Like-named read-outs stand apart in the source and are kept apart here.

One series relates to human PBMC. The conditions noted are these: cited from earlier work.
For the next series, the system named is NK activity. The conditions noted are these: cited from earlier work.
Series [1] has as its system ODN-induced cytokine expression. To be noted: ELISA on supernatants from DBA/2 spleen cells, 2 × 10^7 cells/ml, 24 hr, ODN at 30 μg/ml; cited from earlier work.
For series [2] the following is noted: oligo 1619 alone or with a second "bad" CpG oligonucleotide added; cited from earlier work.
Series [3] has as its system Murine IL-6 production and B cell activation. To be noted: cited from earlier work; for IL-6 (pg/ml) CH12.LX: CH12.LX cells; for IL-6 (pg/ml) SPLENIC B CELL: splenic B cells.
[4] abbreviates: ODN 12 μg/ml, 24 hr, 10% autologous serum, level above wells with no ODN, ELISA.
Setting [5] is: unstimulated control ≤10 pg/ml, US 6,239,116 Table 2.

With “1619 (DNA TCCATGTCGTTCCTGATGCT; chemistry not given here) [Oligonucleotide 1619]”, the TNF-α in the series with human PBMC (ODN 12 μg/ml, 4 hr, 10% autologous serum, level above wells with no ODN, ELISA) was 450 pg/mL. Moreover, in the series on human PBMC (setting [4]), the GM-CSF was 80 pg/mL, the IFN-γ was 200 pg/mL, the IL-6 was 275 pg/mL and the IL-12 is 450 pg/mL. Also, in the series with human PBMC, the GM-CSF was 80, the IFN-γ was 200, the IL-6 was 275 and the IL-12 is >500. Further, the TNF-α in the series on human PBMC was 450. Further, the “LU/10^6, Mouse Cells” value in the series on NK activity (Expt. 3, None = 0.00) is 3.35 LU/10^6. Besides, the “NK activity LU/10^5 Mouse Cells” value in the series on NK activity (Table 3 of U.S. Pat. No. 6,214,806) is 3.35 LU/10^5. In the series with NK activity (Table 9 of U.S. Pat. No. 6,207,646), the “NK activity LU/10^6 Mouse Cells” value is 3.35 LU/10^6. Besides, in series [1], the “ODN-induced cytokine expression IFN-γ” value was 4628 pg/mL, the “ODN-induced cytokine expression IL-6” value is 1405 pg/mL and the “ODN-induced cytokine expression IL-12” value was 3130 pg/mL. In addition, in series [2], the IL-12 in pg/ml was 6 pg/mL. Further, in series [3], the “IL-6 (pg/ml) CH12.LX” value was 1555 ± 304 pg/mL and the “IL-6 (pg/ml) SPLENIC B CELL” value is 2908 ± 129 pg/mL. In addition, in series [3] (setting [5]), the “IL-6 (pg/ml) CH12.LX” value was 1555 ± 304 pg/mL and the “IL-6 (pg/ml) SPLENIC B CELL” value was 2908 ± 129 pg/mL. In addition, the “SI (stimulation index, [3H] uridine uptake, fold increase from unstimulated control)” value in series [3] (cells stimulated with 20 μM CpG O-ODN, mean ± SD of triplicates) is 12.5 ± 1.0. For the same substance, the “SI (stimulation index, [3H] uridine uptake)” value in series [3] (fold increase from unstimulated control, 20 μM CpG O-ODN, mean ± SD of triplicates) is listed as 12.5 ± 1.0. Further, the IgM in series [3] (measured by ELISA, unstimulated culture 547 ± 82 ng/ml) was 8243 ± 698 ng/mL.
